Test results: patent US20030086873A1, “Myocardial imaging agent and preparation method thereof” (priority 2001, published 2003)

Tests used:
[1] = Biological distribution in the bodies of Kunming mice after caudal vein injection; assay type: in vivo
Experimental: The complexes [^99mTc(CO)3(OH2)3]^+ and [^99mTc(CO)3(MIBI)3]^+ prepared in Example 1 were separately injected in the caudal vein of Kunming mice. The experiment was conducted on three mice within each time period, and the injection's activity was 925 KBq. The radioactivity of individual organs's tissue was measured at 5, 15, 30, and 60 minutes after the injection, and the results are represented by radioactive uptake rate per gram of tissue.
The results of the distribution of [^99mTc(CO)3(OH2)3]^+ in the mice's bodies are included in Tables 2; the results for [^99mTc(CO)3(MIBI)3]^+ are presented in Table 3. The value “% ID/g” is the percentage of the injection's total radioactivity that each gram of tissue accounts for i.e., the radioactive uptake rate per gram of tissue, with ID standing for “injected dose.”

[2] = Dynamic SPECT imaging and biological distribution in dogs after intravenous injection; assay type: in vivo; settings: for Heart biological distribution / Kidneys biological distribution / Liver biological distribution / Lungs biological distribution: i.v.
Experimental: Dogs were intravenously injected with [^99mTc(CO)3(MIBI)3]^+ or [^99mTc(MIBI)6][…]at dose of […]. Immediately following injection, dynamic photography for up to 120 min was performed using a Toshiba GCA 7200A two-probe SPECT and a low energy parallel aperture regular collimator. Time—radioactivity curves were also collected for the heart, liver, lungs, and kidneys. Target/non-target radioactivity ratios were calculated, and fall body imaging was performed separately at different times. The biological distributions of the imaging agents in the body were analyzed. Vein blood samples were collected separately at different times, and the dynamics of the blood clearance was analyzed. Flat myocardial imaging was conducted separately at different times, with myocardial tomographic imaging at 120 minutes post injection.

For “[^99mTc(CO)3(OH2)3]^+ [reference compound]”, the “Blood radioactive uptake per gram of tissue” value ([1]; 5 Minutes after injection) was 9.27 ± 1.13 % ID/g, the “Bones radioactive uptake per gram of tissue” value ([1]; 5 Minutes after injection) was 2.82 ± 0.95 % ID/g and the “Brain radioactive uptake per gram of tissue” value ([1]; 5 Minutes after injection) was 0.31 ± 0.09 % ID/g. The “Heart radioactive uptake per gram of tissue” value ([1]; 5 Minutes after injection) was 2.68 ± 0.88 % ID/g, the “Kidneys radioactive uptake per gram of tissue” value ([1]; 5 Minutes after injection) was 18.29 ± 4.22 % ID/g and the “Liver radioactive uptake per gram of tissue” value ([1]; 5 Minutes after injection) was 10.33 ± 0.82 % ID/g. For the same compound, the “Lungs radioactive uptake per gram of tissue” value ([1]; 5 Minutes after injection) was 6.53 ± 1.41 % ID/g, the “Muscles radioactive uptake per gram of tissue” value ([1]; 5 Minutes after injection) was 1.47 ± 0.37 % ID/g and the “Spleen radioactive uptake per gram of tissue” value ([1]; 5 Minutes after injection) was 2.02 ± 1.02 % ID/g. The “Blood radioactive uptake per gram of tissue” value ([1]; 15 Minutes after injection) was 6.04 ± 0.73 % ID/g, the “Bones radioactive uptake per gram of tissue” value ([1]; 15 Minutes after injection) was 1.68 ± 0.22 % ID/g and the “Brain radioactive uptake per gram of tissue” value ([1]; 15 Minutes after injection) was 0.27 ± 0.03 % ID/g. For the same compound, the “Heart radioactive uptake per gram of tissue” value ([1]; 15 Minutes after injection) was 2.39 ± 0.66 % ID/g, the “Kidneys radioactive uptake per gram of tissue” value ([1]; 15 Minutes after injection) was 14.25 ± 1.78 % ID/g and the “Liver radioactive uptake per gram of tissue” value ([1]; 15 Minutes after injection) was 11.95 ± 0.66 % ID/g. The “Lungs radioactive uptake per gram of tissue” value ([1]; 15 Minutes after injection) was 5.38 ± 0.76 % ID/g, the “Muscles radioactive uptake per gram of tissue” value ([1]; 15 Minutes after injection) was 1.46 ± 0.48 % ID/g and the “Spleen radioactive uptake per gram of tissue” value ([1]; 15 Minutes after injection) was 2.38 ± 0.37 % ID/g. For the same compound, the “Blood radioactive uptake per gram of tissue” value ([1]; 30 Minutes after injection) was 5.79 ± 0.66 % ID/g, the “Bones radioactive uptake per gram of tissue” value ([1]; 30 Minutes after injection) was 2.38 ± 0.54 % ID/g and the “Brain radioactive uptake per gram of tissue” value ([1]; 30 Minutes after injection) was 0.29 ± 0.06 % ID/g. For the same compound, the “Heart radioactive uptake per gram of tissue” value ([1]; 30 Minutes after injection) was 2.39 ± 0.56 % ID/g, the “Kidneys radioactive uptake per gram of tissue” value ([1]; 30 Minutes after injection) was 13.88 ± 1.02 % ID/g and the “Liver radioactive uptake per gram of tissue” value ([1]; 30 Minutes after injection) was 10.83 ± 1.68 % ID/g. For the same compound, the “Lungs radioactive uptake per gram of tissue” value ([1]; 30 Minutes after injection) was 5.37 ± 0.78 % ID/g, the “Muscles radioactive uptake per gram of tissue” value ([1]; 30 Minutes after injection) was 1.66 ± 0.61 % ID/g and the “Spleen radioactive uptake per gram of tissue” value ([1]; 30 Minutes after injection) was 2.94 ± 0.69 % ID/g. For the same compound, the “Blood radioactive uptake per gram of tissue” value ([1]; 60 Minutes after injection) was 4.50 ± 0.72 % ID/g, the “Bones radioactive uptake per gram of tissue” value ([1]; 60 Minutes after injection) was 1.65 ± 0.12 % ID/g and the “Brain radioactive uptake per gram of tissue” value ([1]; 60 Minutes after injection) was 0.22 ± 0.03 % ID/g. For the same compound, the “Heart radioactive uptake per gram of tissue” value ([1]; 60 Minutes after injection) was 2.08 ± 0.31 % ID/g, the “Kidneys radioactive uptake per gram of tissue” value ([1]; 60 Minutes after injection) was 12.28 ± 2.32 % ID/g and the “Liver radioactive uptake per gram of tissue” value ([1]; 60 Minutes after injection) was 10.73 ± 0.90 % ID/g. The “Lungs radioactive uptake per gram of tissue” value ([1]; 60 Minutes after injection) was 5.19 ± 1.18 % ID/g, the “Muscles radioactive uptake per gram of tissue” value ([1]; 60 Minutes after injection) was 1.37 ± 0.80 % ID/g and the “Spleen radioactive uptake per gram of tissue” value ([1]; 60 Minutes after injection) was 3.20 ± 0.80 % ID/g. For the same compound, the “Specific concentration in tissues / heart” value ([1]; in words) was “no specific concentration” and the Radioactive retention ([1]; within 60 minutes, in words) was “good radioactive retention”.
For `[C-]#[N+]CC(C)(C)OC.[C-]#[N+]CC(C)(C)OC.[C-]#[N+]CC(C)(C)OC.[C-]#[N+]CC(C)(C)OC.[C-]#[N+]CC(C)(C)OC.[C-]#[N+]CC(C)(C)OC.[Tc]` [[^99mTc(MIBI)6]^+, reference compound], the “Target/Non-Target Uptake Ratio Heart/Blood” value ([1]; 5 Minutes) was 12.80, the “Target/Non-Target Uptake Ratio Heart/Liver” value ([1]; 5 Minutes) was 0.94 and the “Target/Non-Target Uptake Ratio Heart/Lungs” value ([1]; 5 Minutes) was 2.87. The “Target/Non-Target Uptake Ratio Heart/Blood” value ([1]; 15 Minutes) was 35.09, the “Target/Non-Target Uptake Ratio Heart/Liver” value ([1]; 15 Minutes) was 0.76 and the “Target/Non-Target Uptake Ratio Heart/Lungs” value ([1]; 15 Minutes) was 6.08. For the same compound, the “Target/Non-Target Uptake Ratio Heart/Blood” value ([1]; 30 Minutes) was 89.04, the “Target/Non-Target Uptake Ratio Heart/Liver” value ([1]; 30 Minutes) was 0.90 and the “Target/Non-Target Uptake Ratio Heart/Lungs” value ([1]; 30 Minutes) was 9.07. The “Target/Non-Target Uptake Ratio Heart/Blood” value ([1]; 60 Minutes) was 134.15, the “Target/Non-Target Uptake Ratio Heart/Liver” value ([1]; 60 Minutes) was 1.04 and the “Target/Non-Target Uptake Ratio Heart/Lungs” value ([1]; 60 Minutes) was 12.25. The Target/Non-Target Uptake Ratio Heart/Kidneys ([2]; 2 Minutes) was 0.39, the Target/Non-Target Uptake Ratio Heart/Liver ([2]; 2 Minutes) was 0.83 and the Target/Non-Target Uptake Ratio Heart/Lungs ([2]; 2 Minutes) was 2.35. The Target/Non-Target Uptake Ratio Heart/Kidneys ([2]; 5 Minutes) was 0.48, the Target/Non-Target Uptake Ratio Heart/Liver ([2]; 5 Minutes) was 0.83 and the Target/Non-Target Uptake Ratio Heart/Lungs ([2]; 5 Minutes) was 2.48. It also gave a Target/Non-Target Uptake Ratio Heart/Kidneys ([2]; 10 Minutes) of 0.59, a Target/Non-Target Uptake Ratio Heart/Liver ([2]; 10 Minutes) of 0.77 and a Target/Non-Target Uptake Ratio Heart/Lungs ([2]; 10 Minutes) of 2.66. The Target/Non-Target Uptake Ratio Heart/Kidneys ([2]; 20 Minutes) was 0.45, the Target/Non-Target Uptake Ratio Heart/Liver ([2]; 20 Minutes) was 0.85 and the Target/Non-Target Uptake Ratio Heart/Lungs ([2]; 20 Minutes) was 2.8. It also gave a Target/Non-Target Uptake Ratio Heart/Kidneys ([2]; 30 Minutes) of 0.43, a Target/Non-Target Uptake Ratio Heart/Liver ([2]; 30 Minutes) of 0.86 and a Target/Non-Target Uptake Ratio Heart/Lungs ([2]; 30 Minutes) of 2.68. The Target/Non-Target Uptake Ratio Heart/Kidneys ([2]; 40 Minutes) was 0.43, the Target/Non-Target Uptake Ratio Heart/Liver ([2]; 40 Minutes) was 0.87 and the Target/Non-Target Uptake Ratio Heart/Lungs ([2]; 40 Minutes) was 2.7. It also gave a Target/Non-Target Uptake Ratio Heart/Kidneys ([2]; 60 Minutes) of 0.43, a Target/Non-Target Uptake Ratio Heart/Liver ([2]; 60 Minutes) of 0.84 and a Target/Non-Target Uptake Ratio Heart/Lungs ([2]; 60 Minutes) of 2.84. For the same compound, the Target/Non-Target Uptake Ratio Heart/Kidneys ([2]; 90 Minutes) was 0.46, the Target/Non-Target Uptake Ratio Heart/Liver ([2]; 90 Minutes) was 0.8 and the Target/Non-Target Uptake Ratio Heart/Lungs ([2]; 90 Minutes) was 2.84. For the same compound, the Target/Non-Target Uptake Ratio Heart/Kidneys ([2]; 120 Minutes) was 0.45, the Target/Non-Target Uptake Ratio Heart/Liver ([2]; 120 Minutes) was 0.8 and the Target/Non-Target Uptake Ratio Heart/Lungs ([2]; 120 Minutes) was 2.73. For the same compound, the Heart biological distribution ([2]; 20 Minutes) was 3.2 % ID/g, the Kidneys biological distribution ([2]; 20 Minutes) was 14.3 % ID/g and the Liver biological distribution ([2]; 20 Minutes) was 21.0 % ID/g. It also gave a Lungs biological distribution ([2]; 20 Minutes) of 6.3 % ID/g, a Heart biological distribution ([2]; 30 Minutes) of 3.5 % ID/g and a Kidneys biological distribution ([2]; 30 Minutes) of 3.2 % ID/g. The Liver biological distribution ([2]; 30 Minutes) was 10.3 % ID/g, the Lungs biological distribution ([2]; 30 Minutes) was 6.5 % ID/g and the Heart biological distribution ([2]; 40 Minutes) was 2.9 % ID/g. The Kidneys biological distribution ([2]; 40 Minutes) was 12.3 % ID/g, the Liver biological distribution ([2]; 40 Minutes) was 24.4 % ID/g and the Lungs biological distribution ([2]; 40 Minutes) was 6.3 % ID/g. For the same compound, the Heart biological distribution ([2]; 60 Minutes) was 3.3 % ID/g, the Kidneys biological distribution ([2]; 60 Minutes) was 12.7 % ID/g and the Liver biological distribution ([2]; 60 Minutes) was 25.1 % ID/g. For the same compound, the Lungs biological distribution ([2]; 60 Minutes) was 5.5 % ID/g, the Heart biological distribution ([2]; 90 Minutes) was 3.2 % ID/g and the Kidneys biological distribution ([2]; 90 Minutes) was 13.2 % ID/g. It also gave a Liver biological distribution ([2]; 90 Minutes) of 22.8 % ID/g, a Lungs biological distribution ([2]; 90 Minutes) of 6.2 % ID/g and a Heart biological distribution ([2]; 120 Minutes) of 3.5 % ID/g. The Kidneys biological distribution ([2]; 120 Minutes) was 12.1 % ID/g, the Liver biological distribution ([2]; 120 Minutes) was 25.2 % ID/g and the Lungs biological distribution ([2]; 120 Minutes) was 5.2 % ID/g. For the same compound, the “Liver time-radioactivity curve relative to the myocardial curve” value ([2]; in words) was “higher than the myocardial curve”.
